Results reported in US7109215B2, “Compounds possessing neuronal activity” (Vertex Pharmaceuticals Incorporated, priority 1997, dated 2006).
Marks after values point to notes of the source that are not given here.

Legend:
[1] = system: pheochromocytoma PC12 cells; assay: Neurite outgrowth quantitation in PC12 cell system; format: cell-based, rat; details: for Neurite outgrowth, visual scale of 0 to 4: 1–5 ng/ml NGF, 72 hours
Experimental: In order to directly determine the neurotrophic activity of compounds described in this invention, the neurite outgrowth assay was carried out with pheochromocytoma PC12 cells as described by Lyons et al. (1994).
PC12 cells were maintained at 37° C. and 5% CO2 in Dulbecco's modified Eagle's medium (DMEM) supplemented with 10% heat-inactivated horse serum, 5% heat-inactivated fetal bovine serum (FBS), and 1% glutamate.
The cells were then plated at […] in 96 well plates coated with […] rat tail collagen and allowed to attach overnight. The medium was then replaced with DMEM, 2% heat-inactivated horse serum, 1% glutamate, 1–5 ng/ml of NGF (Sigma) and varying concentrations of the compounds of this invention (0.01 nM–10000 nM). The background control culture was administered with […] of NGF alone without compound. Positive control cultures were administered with high concentration of NGF (50 ng/ml). The cells were then incubated at 37° C. at 5% CO2 for 72 hours, fixed with 3% formaldehyde and nerve outgrowth was determined visually on a scale of 0 to 4.

HL60/Vinc cells = assay: MDR sensitization (reversal) assay, doxorubicin, XTT viability; format: cell-based, human; details: IC50 doxorubicin alone / IC50 doxorubicin plus compound
Experimental: We carried out multidrug resistance reversal (MDR) assays using L1210vMDRC.06 or HL60/Vinc cell lines. L1210vMDRC.06 are L1210 mouse leukemia cells transduced with the pHaMDR1/A retrovirus carrying a MDR1 cDNA, as described by Pastan et al., Proc. Natl. Acad. Sci. USA, 85, pp. 4486–4490 (1988). The L1210vMDRC.06 multidrug resistant line is a cell line that has been drug-selected by culturing transfected cells in 0.06 μg/ml colchicine. The HL60/Vinc human promyleocytic leukemia cell line is a multidrug resistant cell line derived from HL60 drug-sensitive parental cells by selection in increasing concentrations of vincristine.
Assays using HL60/Vinc cells were performed by plating cells in 96 well microtiter plates at a concentration of 4×10^4 cells/well. The cells were then exposed to various concentrations of doxorubicin (9 nM to 6.7 μM) in the presence or absence of various compounds of this invention at various concentrations (0.5, 1.0, 2.5, 5.0 or 10 μM) as described in U. Germann et al., Anti-Cancer Drugs, 8, pp. 141–155 (1997). After culturing the cells for 3 days, their viability was quantitated using the XTT dye method to assess mitochondrial function (Roehm et al., supra). Results were expressed as a ratio of the IC50 for doxorubicin alone to the IC50 for doxorubicin plus compound. In all assays the intrinsic antiproliferative or cytotoxicity activity of the MDR inhibitors was also determined for HL60/Vinc cells.

FKBP = FKBP (Homo sapiens, UniProt P62942); assay: Rotamase inhibition assay (chymotrypsin-coupled PPIase assay); format: biochemical; details: 15 nM FKBP, 30 μM Suc-Ala-Leu-Pro-Phe-pNA, 15° C.
Sequence of FKBP (P62942 whole entry): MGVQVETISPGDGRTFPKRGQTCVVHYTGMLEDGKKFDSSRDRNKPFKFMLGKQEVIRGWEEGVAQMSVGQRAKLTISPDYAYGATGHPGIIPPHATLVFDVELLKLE
Experimental: Inhibition of FKBP enzyme activity was determined in the PPIase assay described in S. T. Park et al., J. Biol. Chem., 267, pp. 3316–24 (1992), the disclosure of which is herein incorporated by reference. This is a chymotrypsin-coupled assay in which FKBP catalyzes the cis to trans isomerization of the Leu-Pro bond in the peptide substrate Suc-Ala-Leu-Pro-Phe-pNA. The trans form, but not the cis form, is cleavable by chymotrypsin. The release Phe-pNA was monitored by absorbance at 400 nm. Chymotrypsyn cleavage is very rapid and therefore cis-to-trans isomerization is rate-limiting.
Each reaction mix consisted of 0.1 M Tris buffer, pH 7.8, 15 nM FKBP, 30 μM substrate and 0.5 nM to 10 μM of compound to be tested diluted in Me2SO. The mixture was incubated at 15° C. for 5 minutes and then reaction was initiated by addition of chymotrypsin (100 μg/ml final concentration) and followed spectrophotometrically for 5 minutes. Total reaction volume was 1 ml.

| SMILES | Neurite outgrowth, visual scale of 0 to 4 ([1]; compound 10 nM) | Neurite outgrowth, visual scale of 0 to 4 ([1]; compound 100 nM) | Neurite outgrowth, visual scale of 0 to 4 ([1]; compound 1000 nM) | MDR Ratio (HL60/Vinc cells; compound 2.5 μM) | Ki (FKBP) [µM] | Neurite outgrowth, visual scale of 0 to 4 ([1]; compound 0.01 nM) | Neurite outgrowth, visual scale of 0 to 4 ([1]; compound 0.1 nM) | Neurite outgrowth, visual scale of 0 to 4 ([1]; compound 1 nM) | Neurite outgrowth, visual scale of 0 to 4 ([1]; compound 10000 nM) | Neurite outgrowth over background control cultures (in words) ([1]; PC12 assay) | MDR Ratio (HL60/Vinc cells; compound 10 μM) |
| --- | --- | --- | --- | --- | --- | --- | --- | --- | --- | --- | --- |
| CN(C(=O)[C@H](Cc1ccccc1)N(C)S(=O)(=O)c1ccc(F)cc1)C(CCCc1cccnc1)CCCc1cccnc1 [Compound 14] | 3* | 2* | 4* | 19.9 | – | – | – | – | – | – | – |
| CC(=O)Nc1ccc(S(=O)(=O)N(C)[C@@H](Cc2ccccc2)C(=O)N(C)C(CCCc2cccnc2)CCCc2cccnc2)cc1 [Compound 15] | 3* | 3* | 3* | 2.4 | – | – | – | – | – | – | – |
| CN(CCc1ccccn1)C(=O)C(Cc1ccccc1)N(C)S(=O)(=O)c1ccc(N)cc1 (stereo in doubt) [Compound 2, (S)-(N-methyl)-2-(methyl-(4-amino-benzenesulfanilamido))-3-phenyl-N-(2-(pyridin-2yl)ethyl) propionamide] | 3*** | 3*** | 4*** | 0.7 | > 50 | – | – | – | – | – | – |
| CN(C(=O)[C@H](Cc1ccccc1)N(C)S(=O)(=O)Cc1ccccc1)C(CCCc1cccnc1)CCCc1cccnc1 [Compound 12] | 3* | 3* | 4* | 22.6 | – | – | – | – | – | – | – |
| CN(C(=O)[C@H](Cc1ccccc1)N(C)S(=O)(=O)c1ccc(C#N)cc1)C(CCCc1cccnc1)CCCc1cccnc1 [Compound 16] | 3* | 4* | 3* | 19.9 | – | – | – | – | – | – | – |
| CN(CCCc1cccnc1)C(=O)C1CCCCN1 (centres unmarked) [Compound 110] | – | 3* | 0* | 1.1 | > 25 | – | – | – | – | – | – |
| O=C(NCc1ccncc1)C1CCCCN1 (centres unmarked) [Compound 104] | 2* | 4* | 3* | 0.6 | > 50 | 3* | 3* | 2* | 4* | – | – |
| COc1ccc(S(=O)(=O)N(C)[C@@H](Cc2ccccc2)C(=O)N(C)C(CCCc2cccnc2)CCCc2cccnc2)cc1OC [Compound 17] | 3* | 3* | 4* | 14.6 | – | – | – | – | – | – | – |
| CNC(Cc1ccccc1)C(=O)N(C)CCCc1cccnc1 (centres unmarked) [Compound 108] | 0 | 3 | 0 | 0.4 | > 25 | – | – | – | – | – | – |
| O=C(OCc1ccccc1)C1CCCCN1 (centres unmarked) [Compound 101] | – | – | – | – | > 50 | – | – | – | – | – | – |
| CN(C(=O)[C@H](Cc1ccccc1)N(C)S(=O)(=O)CS(C)(=O)=O)C(CCCc1cccnc1)CCCc1cccnc1 [Compound 11] | 1* | 3* | 3* | 1.7 | – | – | – | – | – | – | – |
| O=C(NCc1cccnc1)C1CCCCN1 (centres unmarked) [Compound 103] | 0 | 0 | 0 | 0.7 | > 50 | – | – | – | – | Negative results | – |
| CN(C(=O)[C@H](Cc1ccccc1)N(C)S(=O)(=O)/C=C/c1ccccc1)C(CCCc1cccnc1)CCCc1cccnc1 [Compound 13] | 3* | 3* | 4* | 19.3 | – | – | – | – | – | – | – |
| CN(CCc1ccccn1)C(=O)[C@@H]1CCCCN1S(=O)(=O)c1ccc(N)cc1 [Compound 1, N-(4-aminobenzenesulfonamido)-(S)-piperidine-2-carboxylic acid-2-((N-methyl)-2-pyridylethyl) amide] | 3*** | 1*** | 3*** | 0.6 | – | – | – | – | – | – | – |
| O=C(OC(CCCc1cccnc1)CCCc1cccnc1)C1CCCCN1 (centres unmarked) [Compound 102] | 4** | 2** | 3** | 1.2 | – | 3* | 3* | 4* | 4* | – | – |
| CN(C(=O)[C@H](Cc1ccccc1)N(C)S(=O)(=O)c1ccc(Nc2ccc([N+](=O)[O-])cc2[N+](=O)[O-])cc1)C(CCCc1cccnc1)CCCc1cccnc1 [Compound 5] | 2* | 3* | 3* | – | – | – | – | – | – | – | 30.4 |
| CN(C)c1cccc2c(S(=O)(=O)N(C)[C@@H](Cc3ccccc3)C(=O)N(C)C(CCCc3cccnc3)CCCc3cccnc3)cccc12 [Compound 7] | 2* | 3* | 3* | – | – | – | – | – | – | – | 21.9 |
| CN(C)c1ccc(/N=N\c2ccc(S(=O)(=O)N(C)[C@@H](Cc3ccccc3)C(=O)N(C)C(CCCc3cccnc3)CCCc3cccnc3)cc2)cc1 [Compound 6] | 4* | 2* | 3* | – | – | – | – | – | – | – | 17.7 |
| CNC(Cc1ccccc1)C(=O)N(C)C(CCCc1cccnc1)CCCc1cccnc1 (centres unmarked) [Compound 109] | 3* | 2* | 4* | – | – | 3* | 4* | 4* | 3* | – | – |
